Measured values from patent US6372746B1, “Derivatives of acyl-piperazinyl-pyrimidines, preparation thereof and application as medicaments” (Laboratorios Del Dr. Esteve, S.A., priority 1997, dated 2002).
Where a name gives a salt, the structure may show the parent alone.

Columns and labels:
mice [1] = assay: Analgesic activity: protection from contortions induced by phenylbenzoquinone; format: in vivo; conditions: for DE50 (mg/kg, o.a.): o.a. (orally); for DE50 (mg/kg, o.a.) / DE50 (mg/kg, s.c.): phenylbenzoquinone 5 mg/kg i.p.
Experimental: The analgesic activity of the products of the invention have been studied by evaluation of their effect in the test of contortions induced by phenylbenzoquinone in mice, following the method described by Siegmund E., and coworkers (Proc. Soc. Exp. Biol. Med. 1957, 95: 729-731).
The mice received the products of the study, a different dosage levels, and one later they received an injections i.p. of 5 mg/kg of phenylbenzoquinone. The portions of the mice were registered for the following fifteen minutes and compared the contortions of the control group. The DE50 (dosage efficacy 50) of the pound of Example 4 is shown.

mice [2] = assay: Sleep-inducing activity: capacity to increase the sleep time induced by barbital; format: in vivo; conditions: for % Activity (sleep) Dosage 100 mg/kg: product 100 mg/Kg i.p., 15 min after barbital 150 mg/Kg i.v.; for DE50: product i.p. 15 min after barbital 150 mg/Kg i.v., dosage efficacy 50
Experimental: Sleep-inducing Activity in Mice
Fifteen minutes after the administration of barbital (150 mg/Kg, i.v.), the mice were treated with the product of the study at an initial dose of 100 mg/Kg (i.p.).

mice [3] = assay: General anaesthetic activity in mice, I.V. administration; format: in vivo; conditions: i.v. caudal vein; for Duration: duration of sleep; for Start (s) / Start: start of sleep
Experimental: General Anaesthetic Activity
The general anaesthetic activity was study in mice, injecting the product of the study in the caudal vein. The start and duration time of sleep were recorded. The results for some of the products of the patent are shown in Table 3 and it can be seen that they show a clear anaesthetic activity with respect to the reference compound (Propofol), with the animals recovering later.

mice [4] = assay: Muscular relaxant (miorelaxant) activity in the Irwing mouse test; format: in vivo; conditions: 80 mg/kg i.p.; for % muscular relaxation at a time of: 1 H: 1 H after administration; for % muscular relaxation at a time of: 2 H: 2 H after administration; for % muscular relaxation at a time of: 3 H: 3 H after administration; for % muscular relaxation at a time of: 4 H: 4 H after administration; for % muscular relaxation at a time of: 5 H: 5 H after administration; for % muscular relaxation at a time of: ½ H: ½ H after administration
Experimental: Muscular Relaxant Activity
The mice received the products under study at a dosage of 80 mg/kg, via I.p., and at different times after administration (½, 1, 2, 3, 4 and 5 hours) the body tone and the abdominal tone was evaluated looking at the muscular tension compared to the control animals.

COc1ccnc(N2CCN(C(=O)c3ccsc3)CC2)n1 (as salt: HCl) (hydrate or solvate) [Example 13, 4-methoxy-2-[4-(3-thienylcarbonyl)-1-piperazinyl]pyrimidine chlorohydrate]
melting point: 154 to 156 °C

COc1ccnc(N2CCN(C(=O)c3ccco3)CC2)n1 (as salt: HCl) (hydrate or solvate) [Example 2, 2-[4-(2-furylcarbonyl)-1-piperazinyl]-4-methoxypyrimidine chlorohydrate]
melting point: 162 to 164 °C

Cc1sc2ccccc2c1Cl
melting point: 175 to 176 °C

CC(=O)Oc1ccccc1C(=O)O [Aspirin, reference compound]
DE50 (mg/kg, o.a.) (mice [1]): 120 mg/kg
DE50 (mg/kg, s.c.) (mice [1]): 84 mg/kg

COc1ccnc(N2CCN(C(=O)C3CC3)CC2)n1 [Example 9]
% Activity (sleep) Dosage 100 mg/kg (mice [2]): 67%
DE50 (mice [2]): 28.1 mg/kg

CC(C)c1cccc(C(C)C)c1O [Propofol, reference compound]
Duration (mice [3]; dosage 80 mg/kg): 0 min
Start (s) (mice [3]; dosage 80 mg/kg): No
Duration (mice [3]; dosage 106 mg/kg): 6.2 min
Start (mice [3]; dosage 106 mg/kg): 30 s
Duration (mice [3]; dosage 120 mg/kg): 3.9 min
Start (mice [3]; dosage 120 mg/kg): 20 s
% muscular relaxation at a time of: 1 H (mice [4]): 100%
% muscular relaxation at a time of: 2 H (mice [4]): 70%
% muscular relaxation at a time of: 3 H (mice [4]): 0%
% muscular relaxation at a time of: 4 H (mice [4]): 0%
% muscular relaxation at a time of: 5 H (mice [4]): 0%
% muscular relaxation at a time of: ½ H (mice [4]): 100%

CCCC(C)(COC(N)=O)COC(N)=O [Meprobamate, reference compound]
% Activity (sleep) Dosage 100 mg/kg (mice [2]): 54%
DE50 (mice [2]): 84.5 mg/kg

COc1ccnc(N2CCN(C(=O)c3ccco3)CC2)n1 [Example 2, 2-[4-(2-furylcarbonyl)-1-piperazinyl]-4-methoxypyrimidine chlorohydrate]
Duration (mice [3]; dosage 40 mg/kg): 0.6 min
Start (mice [3]; dosage 40 mg/kg): 12 s
Duration (mice [3]; dosage 80 mg/kg): 5.3 min
Start (s) (mice [3]; dosage 80 mg/kg): Immediate
% Activity (sleep) Dosage 100 mg/kg (mice [2]): 93%
DE50 (mice [2]): 14.4 mg/kg

COc1ccnc(N2CCN(C(=O)c3cccs3)CC2)n1 (as salt: HCl) (hydrate or solvate) [Example 4, 4-methoxy-2-[4-(2-thienylcarbonyl)-1-piperazinyl]pyrimidine chlorohydrate]
melting point: 143 to 145 °C

COc1ccnc(N2CCN(C(=O)c3ccsc3)CC2)n1 [Example 13, 4-methoxy-2-[4-(3-thienylcarbonyl)-1-piperazinyl]pyrimidine chlorohydrate]
% Activity (sleep) Dosage 100 mg/kg (mice [2]): 77%
DE50 (mice [2]): 41.3 mg/kg

COc1ccnc(N2CCN(C(=O)c3cccs3)CC2)n1 [Example 4, 4-methoxy-2-[4-(2-thienylcarbonyl)-1-piperazinyl]pyrimidine chlorohydrate]
Duration (mice [3]; dosage 40 mg/kg): 1.3 min
Start (mice [3]; dosage 40 mg/kg): 15 s
Duration (mice [3]; dosage 80 mg/kg): 7.4 min
Start (s) (mice [3]; dosage 80 mg/kg): Immediate
% muscular relaxation at a time of: 1 H (mice [4]): 90%
% muscular relaxation at a time of: 2 H (mice [4]): 10%
% muscular relaxation at a time of: 3 H (mice [4]): 0%
% muscular relaxation at a time of: 4 H (mice [4]): 0%
% muscular relaxation at a time of: 5 H (mice [4]): 0%
% muscular relaxation at a time of: ½ H (mice [4]): 100%
DE50 (mg/kg, o.a.) (mice [1]): 72 mg/kg
DE50 (mg/kg, s.c.) (mice [1]): 48 mg/kg
analgesic activity compared with aspirin (in words) (mice [1]; subcutaneously and orally): better analgesic activity
% Activity (sleep) Dosage 100 mg/kg (mice [2]): 100%
DE50 (mice [2]): 8.7 mg/kg
